According to publication PMC10447463, “Data-mining unveils structure–property–activity correlation of viral infectivity enhancing self-assembling peptides” (Nature Communications, 2023):

Columns and labels:
[1] = Aggregate analysis by widefield fluorescence microscopy; assay type: physicochemical
In short: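 First, each peptide (1 mg/mL in PBS, from DMSO stock) incubates 1 d at room temperature; next, it is mixed with 50 µM ThT to 0.1 mg/mL; finally, widefield images at 10x (ex 480/40, em 527/30 nm) are analysed by object counting for particles exceeding 10 µm^2, in triplicate.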

[2] = previously reported peptides only; ref sieste 2021 or Schilling2019; cited from earlier work
Description: Supplement 41467_2023_40663_MOESM7_ESM.zip/FigS17.csv, table | column: Conversion Rate / % ( from sieste 2021 or Schilling2019)

[3] = tested on: HIV-1 infection of TZM-bl cells; conditions: literature report; cited from earlier work
Description: page 30: 8. Amyloid peptides from functional and pathogenic contexts Table S1 Selected amyloid peptides from protein data bases and literature reports. Note, that the peptide KLVFFAK, derived from amyloid ab was reported for retroviral transduction enhancement, however with very low efficiencies (> 4 fold compared to virus only). 33 ”+” indicates reported ThT fluorescence (ThT) or fibril formation, “0” indicates no data reported. All peptides were synthesized via Fmoc SPPS protocol and purchased . w ≥ . sequence ThT fibril pI charge hfauchere derived from original context ref. IKFLSVN + + 9.7 ...

[4] = Fig S8 panels A, C, 3 fields of 1330 µm x 1330 µm
[5] = Fig S8 panels B, D, average aggregate area, 3 fields of 1330 µm x 1330 µm
[6] = Fig S8 panels B, D, median aggregate area, 3 fields of 1330 µm x 1330 µm
[7] = Fig S8 panels B, D, 3 fields of 1330 µm x 1330 µm
[8] = Fig S8 panels B, D, widefield fluorescence microscopy, 3 fields of 1330 µm x 1330 µm

| Substance | Avg Area in 3 *(1330 µm *1330 µm) ([1]; Fig S8 panels A, C) | Log 10 Number of aggregates in 3 * (1330 µm *1330 µm) ([1]; Fig S8 panels A, C) | Median Area in 3 * (1330 µm *1330 µm) ([1]; Fig S8 panels A, C) | log Avg Area in 3 * ( (1330 µm *1330 µm)) ([1]; Fig S8 panels A, C) | log Median Area in 3 * ( (1330 µm *1330 µm)) ([1]; Fig S8 panels A, C) | log Total Area of all particles in 3 * (1330 µm *1330 µm) ([1]; Fig S8 panels A, C) | Number of aggregates in 3 * (1330 µm *1330 µm) [1, 4] | Avg Area in 3 *(1330 µm *1330 µm) [1, 5] | Median Area in 3 * (1330 µm *1330 µm) [1, 6] | Total Area of all particles in 3 * (1330 µm *1330 µm) [1, 7] | Number of aggregates in 3 * (1330 µm *1330 µm) [1, 8] | Conversion Rate / % ( from sieste 2021 or Schilling2019) [2] [%] | retroviral transduction enhancement compared to virus only [3] [fold] |
| --- | --- | --- | --- | --- | --- | --- | --- | --- | --- | --- | --- | --- | --- |
| HHHHKIKIQINMYYYY [TM16] | 97.09 | 2.3686 | 27.74 | 1.987 | 1.443 | 4.356 | 233.7 | 97.09 | 27.74 | 22686.609 | 233.7 |  |  |
| HIHIQIC [CN12] | 747.6 | 1.523 | 85.979 | 2.874 | 1.934 | 4.397 | 33.33 | 747.6 | 85.979 | 24920.46633 | 33.33 |  |  |
| KFKFQFFF [TG12] |  |  |  |  |  |  |  |  |  |  |  | 99 |  |
| KIKIQIII [TG7] |  |  |  |  |  |  |  |  |  |  |  | 87 |  |
| KIKIQIN [JGB3] | 197.4 | 0.6021 | 197.8005 | 2.295 | 2.296 | 2.897 | 4 | 197.4 | 197.8005 | 789.7 | 4 |  |  |
| KIKQIIN [JGA3] | 51.51 | 1.067 | 15.7 | 1.712 | 1.196 | 2.779 | 11.67 | 51.51 | 15.7 | 600.94 | 11.67 |  |  |
| KLVFFAK [reference compound] |  |  |  |  |  |  |  |  |  |  |  |  | > 4 |
| RGDKIKIQINM [MG8a / CN17] |  |  |  |  |  |  |  |  |  |  |  | 48 |  |
| RGDSGGGGGGKIKIQIC [TM114 / RC17] | 372.8 | 1.857 | 53.0945 | 2.572 | 1.725 | 4.429 | 72 | 372.8 | 53.0945 | 26843.97667 | 72 |  |  |
